Measurements published in the supplement of paper PMC11616607.

Tests used:
Experiment in all cases: drug sensitivity score (DSS) from 5-point dose-response viability curve (DSS (area-under-curve based score)); higher = more sensitive (stronger growth inhibition or killing); extreme values may be limits of the assay
Conditions in all cases: exposure time: 72 h; concentration range: 5 concentrations over 10,000-fold range
CAOV3 = test system: CAOV3
How it was run: (§1)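 Ovarian cancer and normal ovarian cell lines were tested in 384-well plates, with drugs dispensed acoustically (Echo 550) in DMSO or water at five concentrations covering a 10,000-fold range. After 1,500 cells per well were added, plates were incubated for 3 days at 37°C and 5% CO2, and viability was read by CellTiter-Glo luminescence on a PHERAstar FS. Breeze software gave a drug sensitivity score for each cell line and drug, where a higher score means greater sensitivity. A value of zero means no response.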

OVCAR8 = test system: OVCAR8
How it was run: as §1

JHOS2 = test system: JHOS2
How it was run: as §1

HOSE2C = test system: HOSE2C
How it was run: as §1

Kuramochi = test system: Kuramochi
How it was run: as §1

COV362 = test system: COV362
How it was run: as §1

OVCAR4 = test system: OVCAR4
How it was run: as §1

COV318 = test system: COV318
How it was run: as §1

HOSE1C = test system: HOSE1C
How it was run: as §1

Ovsaho = test system: Ovsaho
How it was run: as §1

OVCAR5 = test system: OVCAR5
How it was run: as §1

OV90 = test system: OV90
How it was run: as §1

Row | Structure (SMILES) | drug sensitivity score (CAOV3) | drug sensitivity score (OVCAR8) | drug sensitivity score (JHOS2) | drug sensitivity score (HOSE2C) | drug sensitivity score (Kuramochi) | drug sensitivity score (COV362) | drug sensitivity score (OVCAR4) | drug sensitivity score (COV318) | drug sensitivity score (HOSE1C) | drug sensitivity score (Ovsaho) | drug sensitivity score (OVCAR5) | drug sensitivity score (OV90)
1 | C[C@@H](Oc1cc(-c2cnn(C3CCNCC3)c2)cnc1N)c1c(Cl)ccc(F)c1Cl [Crizotinib] | 0 | 0 | 0 | 0.1 | 0 | 0 | 0 | 0 | 0 | 0 | 0 | 0
2 | Cc1ccc(C(=O)N(CCCN)[C@@H](c2oc3cc(Cl)ccc3c(=O)c2Cc2ccccc2)C(C)C)cc1 | 5.8 | 2.9 | 4.8 | 9.2 | 2.9 | 0.4 | 3.4 | 1 | 15.8 | 4.1 | 4.5 | 6.4
3 | CNc1ncc2cc(-c3cc(NC(=O)NCCC(C)(C)C)c(F)cc3C)c(C)nc2n1 | 7.9 | 9.9 | 10.3 | 5 | 8.7 | 4.2 | 3.7 | 0.8 | 4.2 | 8.9 | 11.3 | 24.4
4 | C[C@@H]1C[C@H]2[C@@H]3CCC4=CC(=O)C=C[C@]4(C)[C@@]3(F)[C@@H](O)C[C@]2(C)[C@@]1(O)C(=O)CO [Dexamethasone] | 0 | 0 | 0 | 0 | 0 | 0.5 | 0 | 0 | 0 | 0 | 0 | 0
5 | Cc1ccc(Nc2nccc(N(C)c3ccc4c(C)n(C)nc4c3)n2)cc1S(N)(=O)=O [Pazopanib] | 0 | 0 | 0 | 0 | 0 | 0 | 0 | 0.1 | 0 | 0 | 0 | 0
6 | CC1=C(/C=C/C(C)=C/C=C/C(C)=C/C(=O)O)C(C)(C)CCC1 [Tretinoin] | 0 | 0 | 0.5 | 5.7 | 0 | 0 | 0 | 0 | 0 | 0 | 0 | 0
7 | COC(=O)c1ccc2c(c1)NC(=O)/C2=C(\Nc1ccc(N(C)C(=O)CN2CCN(C)CC2)cc1)c1ccccc1 [Nintedanib] | 0.2 | 3.2 | 0.6 | 6.3 | 4.2 | 1.8 | 3.6 | 2.5 | 3.1 | 5.5 | 7.9 | 3.5
8 | Nc1ncn([C@@H]2O[C@H](CO)[C@@H](O)[C@H]2O)c(=O)n1 [Azacitidine] | 1.7 | 3.4 | 4.4 | 0 | 0.9 | 0.7 | 1.6 | 1.1 | 0 | 3.5 | 2.2 | 3.8
9 | C=C(c1ccc(C(=O)O)cc1)c1cc2c(cc1C)C(C)(C)CCC2(C)C [Bexarotene] | 1.5 | 0.1 | 1.3 | 0 | 0.1 | 0 | 0 | 0.1 | 0 | 0 | 0 | 1.3
10 | CCS(=O)(=O)N1CCN(c2ccc(Nc3ncc(C(N)=O)c(NC4CC4)n3)cc2)CC1 [Cerdulatinib] | 0.2 | 0 | 3.5 | 0.8 | 0 | 2.7 | 0.3 | 0 | 0 | 0 | 0 | 0.6
11 | Cc1cn(-c2cc(NC(=O)c3ccc(C)c(Nc4nccc(-c5cnccn5)n4)c3)cc(C(F)(F)F)c2)cn1 [Radotinib] | 0 | 0 | 0 | 0 | 0.9 | 0 | 0 | 0 | 0 | 0 | 0 | 1.3
12 | Nc1cc(F)ccc1NC(=O)/C=C/c1cnn(C/C=C/c2ccccc2)c1 [RGFP966] | 0.1 | 2.3 | 0.1 | 2.4 | 0.4 | 0 | 2.4 | 0.6 | 1.1 | 0 | 3.3 | 1.9
13 | O=C(Nc1cnn2ccc(N3CCC[C@@H]3c3cc(F)ccc3F)nc12)N1CC[C@H](O)C1 [Larotrectinib] | 0 | 0 | 0 | 0 | 0 | 0 | 0 | 0 | 0 | 0 | 0 | 0
14 | CNC(=O)CN1CCC(Oc2cc3c(Nc4cccc(Cl)c4F)ncnc3cc2OC)CC1 [Sapitinib] | 6.8 | 0 | 0 | 0 | 0 | 0 | 0 | 0 | 0 | 0.7 | 1.7 | 0
15 | CC[C@]1(O)C[C@@H]2CN(CCc3c([nH]c4ccccc34)[C@@](C(=O)OC)(c3cc4c(cc3OC)N(C)[C@H]3[C@@](O)(C(=O)OC)[C@H](OC(C)=O)[C@]5(CC)C=CCN6CC[C@]43[C@@H]65)C2)C1 [Vinblastine] | 22.4 | 8.6 | 3.7 | 12.3 | 4.4 | 2.3 | 9.1 | 1.1 | 13.8 | 5.3 | 3 | 18.5
16 | CCS(=O)(=O)N1CC(CC#N)(n2cc(-c3ncnc4[nH]ccc34)cn2)C1 [Baricitinib] | 0 | 0 | 0 | 0 | 0 | 0 | 0 | 0 | 0 | 0 | 0 | 0
17 | Cc1ccc(F)c(NC(=O)Nc2ccc(-c3cccc4[nH]nc(N)c34)cc2)c1 [Linifanib] | 0 | 0 | 0 | 0 | 0 | 0 | 0 | 0.2 | 0 | 0 | 0 | 0
18 | CC[C@H](CC#N)OC(=O)N[C@@H](C)c1cccc(NC(=O)Nc2ccc(-c3cnco3)c(OC)c2)c1 [AVN944] | 10.9 | 11.1 | 9.6 | 15.8 | 8 | 3.3 | 7 | 9.4 | 25 | 9.5 | 13.6 | 12.7
19 | COc1cc([C@@H]2c3cc4c(cc3[C@@H](O[C@@H]3O[C@@H]5CO[C@@H](c6cccs6)O[C@H]5[C@H](O)[C@H]3O)[C@H]3COC(=O)[C@H]23)OCO4)cc(OC)c1O [Teniposide] | 0 | 0 | 0 | 0 | 0 | 0 | 0 | 0 | 0 | 0 | 0 | 0
20 | Cc1ccc(NC(=O)c2ccc(CN3CC[C@H](N(C)C)C3)c(C(F)(F)F)c2)cc1Nc1nccc(-c2cncnc2)n1 [Bafetinib] | 0 | 0 | 0 | 0 | 0 | 0 | 0 | 0 | 0 | 0 | 0 | 3
21 | COc1cccc2c1C(=O)c1c(O)c3c(c(O)c1C2=O)C[C@@](O)(C(C)=O)C[C@@H]3O[C@H]1C[C@H](N)[C@H](O)[C@H](C)O1 [Daunorubicin] | 9.4 | 10.8 | 6.2 | 10.9 | 4.2 | 3.6 | 3.2 | 1.7 | 11.5 | 7.9 | 8.2 | 5.3
22 | Nc1nc(N)c2nc(-c3cccc(O)c3)c(-c3cccc(O)c3)nc2n1 [TG100-115] | 0.3 | 0 | 0 | 0 | 1.2 | 0.9 | 2.3 | 0 | 0 | 0 | 0.4 | 0
23 | NCC(=O)Nc1ccc(-n2nc(C(F)(F)F)cc2-c2ccc3c(ccc4ccccc43)c2)cc1 | 1 | 2.7 | 1.5 | 8.9 | 1.4 | 0 | 0 | 2.8 | 21.7 | 4.9 | 0 | 0.1
24 | COc1ccc(CCc2nc3cc(-c4c(C)noc4C)ccc3n2C[C@H](C)N2CCOCC2)cc1Cl [SGC-CBP30] | 3.7 | 5.7 | 1.7 | 6.1 | 6.6 | 0.2 | 2 | 3.1 | 11 | 6.6 | 2.9 | 3.4
25 | CCCCCCCCCCCCCCCCCCOP(=O)([O-])OC1CC[N+](C)(C)CC1 [Perifosine] | 0 | 0 | 0 | 0 | 0 | 0 | 0 | 0 | 0 | 0 | 0 | 0
26 | Cc1ccc(=O)n(-c2ccccc2)c1 [Pirfenidone] | 0 | 0 | 0 | 0 | 0 | 0 | 0 | 0 | 0 | 0 | 0 | 0
27 | Cc1cc(C(C)Nc2ccccc2)c2nc(N3CCOCC3)cc(=O)n2c1 (stereo not drawn) [TGX-221] | 0.8 | 1.2 | 0 | 0 | 7.9 | 0.3 | 1.7 | 0 | 0 | 7.8 | 2.1 | 0.2
28 | Nc1ccccc1NC(=O)c1ccc(CNc2nccc(-c3cccnc3)n2)cc1 [Mocetinostat] | 7.1 | 13 | 7.3 | 15.7 | 7 | 1.1 | 6.8 | 8.1 | 17.8 | 7.8 | 13.7 | 7.5
29 | CC/C(=C(\c1ccc(O)cc1)c1ccc(OCCN(C)C)cc1)c1ccccc1 [4-hydroxytamoxifen] | 0.2 | 2.6 | 2.8 | 3 | 4.2 | 2 | 2.1 | 5.5 | 2.7 | 3.9 | 5.9 | 6
